Source: patent publication US10953012B2, “Heterocyclic compounds for the inhibition of pask” (BioEnergenix LLC, priority 2011, dated 2021)

Columns and labels:
CK2a2 = CK2a2 (Homo sapiens (Human), UniProt P19784); assay: Biochemical Assay for CK2 Activity; details: 33P-ATP radiochemical assay; read-out: IC50 CK2 a2
Description: Biochemical Assay for CK2 Activity
Purified CK2a2 (NP_001887; human full-length protein, GST tagged) from insect cells (final concentration 1.2 nM) is added to freshly prepared Base Reaction Buffer containing 20 mM Hepes (pH 7.5), 10 mM MgCl2, 1 mM EGTA, 0.02% Brij35, 0.02 mg/ml BSA, 0.1 mM Na3VO4, 2 mM DTT, 1% DMSO and CK2 sub [RRRDDDSDDD] (20 μM final). Test compounds in DMSO are then added and the mixture, followed by delivery of ^33P-ATP (specific activity 0.01 μCi/μl final) to initiate the reaction. The kinase reaction is incubated for 120 min at room temperature. The entire reaction mixture is washed through onto a P81 Phosphocellulose paper and washed three times for 10 minutes in 75 mM phosphoric acid and once in methanol prior to drying and scintillation counting.

PASK [1] = molecular target: PASK (UniProt #Q96RG2; residues 879-1323) (Homo sapiens (Human), UniProt Q96RG2); assay: PASK ATP Radiochemical Assay; type: biochemical; details: 33P-ATP radiochemical assay; read-out: IC50 Kinase Domain
Description: PASK ATP Radiochemical Assay Purified PASK (UniProt #Q96RG2; human recombinant N-terminal GST tagged construct, residues 879-1323) from insect cells (final concentration 5 nM) is added to freshly prepared Base Reaction Buffer containing 20 mM HEPES (pH 7.5), 10 mM MgCl2, 1 mM EGTA, 0.02% Brij35, 0.02 mg/ml BSA, 0.1 mM Na3VO4, 2 mM DTT, 1% DMSO and Myelin Basic Protein (20 μM final). Test compounds in DMSO are then added and the mixture, followed by delivery of ^33P-ATP (specific activity 0.01 μCi/μl final) to initiate the reaction. The kinase reaction is incubated for 120 min at room temperature. The entire reaction mixture is washed through onto a P81 Phosphocellulose paper and washed three times for 10 minutes in 75 mM phosphoric acid and once in methanol prior to drying and scintillation counting.

PASK [2] = molecular target: PASK (Homo sapiens (Human), UniProt Q96RG2); assay: PAS Kinase FRET Assay; type: biochemical; details: TR-FRET assay; read-out: IC50 Kinase Domain
Procedure, shortened: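 Reaction buffer: 50 mM HEPES, 10 mM MgCl2, 1 mM EGTA, 2 mM DTT, 0.01% Tween-20. Test compounds (eleven-point series prepared at 4× final) preceded PASK and substrate/ATP. Reaction ran 2 h at 25 °C in the dark, then stopped. Phospho-ULight peptide detected by Eu-antibody TR-FRET, 665/615 nm ratio.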

PASK (Homo sapiens (Human), UniProt Q96RG2), sequence (Q96RG2 999-1251): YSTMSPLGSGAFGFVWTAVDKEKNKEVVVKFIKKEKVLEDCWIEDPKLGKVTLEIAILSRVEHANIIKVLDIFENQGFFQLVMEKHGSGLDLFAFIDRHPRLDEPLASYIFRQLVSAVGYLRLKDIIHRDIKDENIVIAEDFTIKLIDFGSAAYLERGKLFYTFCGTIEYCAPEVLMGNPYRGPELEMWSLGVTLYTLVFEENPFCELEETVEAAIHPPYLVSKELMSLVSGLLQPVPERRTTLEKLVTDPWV
CK2a2, sequence (P19784 whole entry): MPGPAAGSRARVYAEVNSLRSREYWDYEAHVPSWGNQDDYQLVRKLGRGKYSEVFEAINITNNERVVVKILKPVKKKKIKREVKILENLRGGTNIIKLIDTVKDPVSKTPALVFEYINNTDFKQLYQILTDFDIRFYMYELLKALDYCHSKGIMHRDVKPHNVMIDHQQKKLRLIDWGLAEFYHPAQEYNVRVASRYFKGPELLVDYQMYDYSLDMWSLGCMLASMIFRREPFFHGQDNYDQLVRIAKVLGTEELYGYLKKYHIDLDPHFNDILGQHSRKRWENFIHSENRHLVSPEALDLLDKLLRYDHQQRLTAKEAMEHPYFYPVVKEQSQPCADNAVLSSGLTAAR
PASK (UniProt #Q96RG2; residues 879-1323) (Homo sapiens (Human), UniProt Q96RG2), sequence (Q96RG2 879-1323): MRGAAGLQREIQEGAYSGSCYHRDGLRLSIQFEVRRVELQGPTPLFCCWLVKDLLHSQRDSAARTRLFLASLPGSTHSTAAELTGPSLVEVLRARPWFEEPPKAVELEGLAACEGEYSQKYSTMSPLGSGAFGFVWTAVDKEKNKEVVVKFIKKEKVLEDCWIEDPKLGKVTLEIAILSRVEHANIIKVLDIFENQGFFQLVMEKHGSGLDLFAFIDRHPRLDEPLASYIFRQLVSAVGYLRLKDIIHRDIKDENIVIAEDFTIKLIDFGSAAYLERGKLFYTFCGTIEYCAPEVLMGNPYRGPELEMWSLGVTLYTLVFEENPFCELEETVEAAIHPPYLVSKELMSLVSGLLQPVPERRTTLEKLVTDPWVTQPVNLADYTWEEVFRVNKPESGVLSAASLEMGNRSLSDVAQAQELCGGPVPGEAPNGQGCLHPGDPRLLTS

Row | Structure (SMILES) | IC50 (CK2a2) [µM] | IC50 (PASK [1]) [µM] | IC50 (PASK [2]) [µM]
1 | COc1cccc(-c2cnn3c(=O)cc(-c4ccc5c(c4)OCCO5)[nH]c23)c1 [Example 92, 5-(2,3-Dihydrobenzo[b][1,4]dioxin-6-yl)-3-(3-methoxyphenyl)pyrazolo[1,5-a]pyrimidin-7(4H)-one] | ≤ 10 | ≤ 10 | ≤ 10
2 | O=c1cc(-c2ccc3c(c2)CCO3)[nH]c2c(-c3ccccn3)cnn12 [Example 96, 5-(2,3-Dihydrobenzofuran-5-yl)-3-(pyridin-2-yl)pyrazolo[1,5-a]pyrimidin-7(4H)-one] | ≤ 10 | ≤ 10 | ≤ 10
3 | O=c1cc(-c2ccc3occc3c2)[nH]c2c(-c3ccccc3)cnn12 [Example 97, 5-(Benzofuran-5-yl)-3-phenylpyrazolo[1,5-a]pyrimidin-7(4H)-one] | ≤ 10 | ≤ 10 | ≤ 10
4 | O=c1cc(-c2ccc3c(c2)CCO3)[nH]c2c(-c3ccccc3)cnn12 [Example 98, 5-(2,3-Dihydrobenzofuran-5-yl)-3-phenylpyrazolo[1,5-a]pyrimidin-7(4H)-one] | ≤ 10 | ≤ 10 | ≤ 10
5 | O=c1cc(-c2ccc3c(c2)CCO3)[nH]c2c(-c3cccnc3)cnn12 [Example 99, 5-(2,3-Dihydrobenzofuran-5-yl)-3-(pyridin-3-yl)pyrazolo[1,5-a]pyrimidin-7(4H)-one] | ≤ 10 | ≤ 10 | ≤ 10
6 | O=c1cc(-c2ccc3c(c2)OCO3)[nH]c2c(-c3cccnc3)c(O)nn12 [Example 100, 5-(Benzo[d][1,3]dioxol-5-yl)-2-hydroxy-3-(pyridin-3-yl)pyrazolo[1,5-a]pyrimidin-7(4H)-one] | ≤ 10 | ≤ 10 | ≤ 10
7 | O=c1cc(-c2ccc3c(c2)OCCO3)[nH]c2c(-c3ccccn3)c(O)nn12 [Example 102, 5-(2,3-Dihydrobenzo[b][1,4]dioxin-6-yl)-2-hydroxy-3-(pyridin-2-yl)pyrazolo[1,5-a]pyrimidin-7(4H)-one] | ≤ 10 | ≤ 10 | ≤ 10
8 | O=c1cc(-c2ccc3c(c2)OCCO3)[nH]c2c(-c3ccccc3)c(O)nn12 [Example 103, 5-(2,3-Dihydrobenzo[b][1,4]dioxin-6-yl)-2-hydroxy-3-phenylpyrazolo[1,5-a]pyrimidin-7(4H)-one] | ≤ 10 | ≤ 10 | ≤ 10
9 | O=C(c1cnn2c(=O)cc(-c3ccc4c(c3)OCCO4)[nH]c12)N1CCOCC1 [Example 106, 5-(2,3-Dihydrobenzo[b][1,4]dioxin-6-yl)-3-(morpholine-4-carbonyl)pyrazolo[1,5-a]pyrimidin-7(4H)-one] | ≤ 10 | ≤ 10 | ≤ 10
10 | CN1CCN(C(=O)c2cnn3c(=O)cc(-c4ccc5c(c4)OCCO5)[nH]c23)CC1 [Example 107, 5-(2,3-Dihydrobenzo[b][1,4]dioxin-6-yl)-3-(4-methylpiperazine-1-carbonyl)pyrazolo[1,5-a]pyrimidin-7(4H)-one] | ≤ 10 | ≤ 10 | ≤ 10
11 | O=C(NCc1ccccc1)c1cnn2c(=O)cc(-c3ccc4c(c3)OCCO4)[nH]c12 [Example 108, N-Benzyl-5-(2,3-dihydrobenzo[b][1,4]dioxin-6-yl)-7-oxo-4,7-dihydropyrazolo[1,5-a]pyrimidine-3-carboxamide] | ≤ 10 | ≤ 10 | ≤ 10
12 | O=c1cc(-c2ccc(Cl)cc2)[nH]c2c(-c3ccccn3)cnn12 [Example 109, 5-(4-Chlorophenyl)-3-(pyridin-2-yl)pyrazolo[1,5-a]pyrimidin-7(4H)-one] | ≤ 10 | ≤ 10 | ≤ 10
13 | COc1ccc(-c2cc(=O)n3ncc(-c4ccccn4)c3[nH]2)c(OC)c1 [Example 110, 5-(2,4-Dimethoxyphenyl)-3-(pyridin-2-yl)pyrazolo[1,5-a]pyrimidin-7(4H)-one] | ≤ 10 | ≤ 10 | ≤ 10
14 | COc1ccc(-c2cc(=O)n3ncc(-c4ccccn4)c3[nH]2)cc1OC [Example 111, 5-(3,4-Dimethoxyphenyl)-3-(pyridin-2-yl)pyrazolo[1,5-a]pyrimidin-7(4H)-one] | ≤ 10 | ≤ 10 | ≤ 10
15 | N#Cc1cnn2c(=O)cc(-c3ccc4c(c3)OCCO4)[nH]c12 [Example 113, 5-(2,3-Dihydrobenzo[b][1,4]dioxin-6-yl)-7-oxo-4,7-dihydropyrazolo[1,5-a]pyrimidine-3-carbonitrile] | ≤ 10 | ≤ 10 | ≤ 10
16 | NC(=O)c1cnn2c(=O)cc(-c3ccc4c(c3)OCCO4)[nH]c12 [Example 114, 5-(2,3-Dihydrobenzo[b][1,4]dioxin-6-yl)-7-oxo-4,7-dihydropyrazolo[1,5-a]pyrimidine-3-carboxamide] | ≤ 10 | ≤ 10 | ≤ 10
17 | O=c1c2c([nH]c3c(-c4ccccn4)cnn13)-c1ccccc1CC2 [Example 116, 11-(Pyridin-2-yl)-5,6-dihydrobenzo[h]pyrazolo[5,1-b]quinazolin-7(12H)-one] | ≤ 10 | ≤ 10 | ≤ 10
18 | O=c1cc(-c2ccc3c(c2)OCCO3)[nH]c2c(-c3ccccc3)c(C(F)(F)F)nn12 [Example 117, 5-(2,3-Dihydrobenzo[b][1,4]dioxin-6-yl)-3-phenyl-2-(trifluoromethyl)pyrazolo[1,5-a]pyrimidin-7(4H)-one] | ≤ 10 | ≤ 10 | ≤ 10
19 | O=c1cc(-c2ccc3c(c2)OCCO3)[nH]c2c(-c3ccc(N4CCCC4)nc3)cnn12 [Example 119, 5-(2,3-Dihydrobenzo[b][1,4]dioxin-6-yl)-3-(6-(pyrrolidin-1-yl)pyridin-3-yl)pyrazolo[1,5-a]pyrimidin-7(4H)-one] | ≤ 10 | ≤ 10 | ≤ 10
20 | COc1ccc2c(c1)CCc1c-2[nH]c2c(-c3ccccn3)cnn2c1=O [Example 121, 3-Methoxy-11-(pyridin-2-yl)-5,6-dihydrobenzo[h]pyrazolo[5,1-b]quinazolin-7(12H)-one] | ≤ 10 | ≤ 10 | ≤ 10
21 | COc1ccc(-c2cc(=O)n3nc(O)c(-c4ccccn4)c3[nH]2)c(OC)c1 [Example 122, 5-(2,4-Dimethoxyphenyl)-2-hydroxy-3(pyridin-2-yl)pyrazolo[1,5-a]pyrimidin-7(4H)-one] | ≥ 10 | ≤ 10 | ≤ 10
22 | O=c1cc(-c2ccc(Cl)cc2)[nH]c2c(-c3ccccn3)c(O)nn12 [Example 123, 5-(4-Chlorophenyl)-2-hydroxy-3-(pyridin-2-yl)pyrazolo[1,5-a]pyrimidin-7(4H)-one] | ≥ 10 | ≤ 10 | ≤ 10
23 | O=c1cc(-c2ccc(F)cc2)[nH]c2c(-c3ccccn3)cnn12 [Example 125, 5-(4-Fluorophenyl)-3-(pyridin-2-yl)pyrazolo[1,5-a]pyrimidin-7(4H)-one] | ≤ 10 | ≤ 10 | ≤ 10
24 | O=c1cc(-c2ccc(Cl)c(Cl)c2)[nH]c2c(-c3ccccn3)cnn12 [Example 126, 5-(3,4-Dichlorophenyl)-3-(pyridin-2-yl)pyrazolo[1,5-a]pyrimidin-7(4H)-one] | ≤ 10 | ≤ 10 | ≤ 10
